PMC10979003, “Development and crystal structures of a potent second-generation dual degrader of BCL-2 and BCL-xL” (Nature Communications, 2024)

Assays:
BCL-xL R103A/D107A/S110A = biological target: T1, BCL-xL R103A/D107A/S110A (Homo sapiens, UniProt Q07817, D107A/R103A/S110A); assay: AlphaScreen binary binding, BCL-xL R103A/D107A/S110A; conditions: mean ± s.d., n=3
T1 construct: BCL-xL (aa 2-212) and BCL-2 (aa 1-207) transformed cells were grown in LB broth; SMT3 (N); made in house; host or cells: E. coli BL21 (DE3) codon plus
Experimental: (§1) To test the binary/ternary binding affinities of compounds to BCL-2/BCL-xL, AlphaScreen displacement binding assay was performed to test the capabilities of testing compounds to displace a Biotin-tagged Bim (Biotin-[…]) or Bad (Biotin-[…]) from BCL-2 or BCL-xL for BCL-2 and BCL-xL binding affinities, respectively. All reagents were diluted in assay buffer of 25 mM HEPES, pH 7.5, 150 mM NaCl, 0.1% BSA, and 0.005% tween 20 prior incubation. To a 96-well PCR plate (VWR, Cat. No. 82006-636) was added 10 μL Biotin-tagged Bim (15 nM for WT or 50 nM for mutants) or Bad (15 nM for WT or 50 nM for mutants), 10 μL series diluted compounds solution (2 or 3 or 4× dilution), and 10 μL self-made 6×His tagged BCL-2 WT or mutants (25 nM WT or 50 nM mutants) or 10 μL self-made BCL-xL WT and mutants (10 nM WT or 50 nM mutants). […] The luminescence signal was detected on a Biotek’s Synergy Neo2 multimode plate reader installed with an AphaScreen filter cube. The Ki values of each compounds were calculated by fitting data into the “Binding-competitive, One site-Fit Ki” function in GraphPad Prism (9.2.0) based on concentrations of Biotin–peptide used and experimentally determined Kd values of each 6×His protein &&&and Biotin–Peptide pair.

BCL-xL D107A = biological target: T2, BCL-xL D107A (Homo sapiens, UniProt Q07817, D107A); assay: AlphaScreen binary binding, BCL-xL D107A; conditions: mean ± s.d., n=3
T2 construct: BCL-xL (aa 2-212) and BCL-2 (aa 1-207) transformed cells were grown in LB broth; SMT3 (N); made in house; host or cells: E. coli BL21 (DE3) codon plus
Experimental: as §1

[1] = biological target: T3, BCL-xL R103A/D107A/S110A/Q111A (Homo sapiens, UniProt Q07817, D107A/Q111A/R103A/S110A); assay: AlphaScreen binary binding, BCL-xL R103A/D107A/S110A/Q111A; conditions: mean ± s.d., n=3; read-out: Ki (nM, n=3), BCL-xL R103A/D107A/S110A/Q111AA
T3 construct: BCL-xL (aa 2-212) and BCL-2 (aa 1-207) transformed cells were grown in LB broth; SMT3 (N); made in house; host or cells: E. coli BL21 (DE3) codon plus
Experimental: as §1

BCL-2 R110A E114A = biological target: T4, BCL-2 R110A E114A (Homo sapiens, UniProt P10415, E114A/R110A); assay: AlphaScreen binary binding, BCL-2 R110A E114A; conditions: mean ± s.d., n=3
T4 construct: BCL-xL (aa 2-212) and BCL-2 (aa 1-207) transformed cells were grown in LB broth; made in house; host or cells: E. coli BL21 (DE3) codon plus
Experimental: as §1

[2] = biological target: T5, VCB/PROTAC/BCL-xL ternary complex (Homo sapiens, UniProt P40337+Q07817); assay: AlphaLISA ternary complex assay VCB/PROTAC/BCL-xL; format: binding; conditions: cell-free AlphaLISA
T5 construct: BCL-xL (aa 2-212) and BCL-2 (aa 1-207) transformed cells were grown in LB broth; SMT3 (N); GST (on the VCB complex); made in house; host or cells: E. coli BL21 (DE3) codon plus (stated for the BCL-xL construct)
Experimental: Assays were performed at room temperature. All reagents were diluted in assay buffer of 25 mM HEPES, pH 7.5, 150 mM NaCl, 0.1% BSA, and 0.005% tween 20. To a 96-well PCR plate (VWR, Cat. No. 82006-636) were added 10 μL self-made 6×His tagged BCL-xL (100 nM) or BCL-2 (150 nM), 10 μL series diluted compounds solution (4× dilution) and 10 μL of self-made GST-VCB (100 nM). After incubating at room temperature for 15 min, 5 µL of alpha glutathione-donor beads (160 μg/mL, PerkinElmer, Cat. No. 6765300) and 5 µL of anti-6×His acceptor beads (160 μg/mL, PerkinElmer, Cat. No. AL128M) to each well and incubated for additional 45 min in the dark before being transferred to two adjacent wells (17 µL each) of 384-well white OptiPlate (PerkinElmer, Cat. No. 6008280). The luminescence signal was detected on a Biotek’s Synergy Neo2 multimode plate reader installed with an AphaScreen filter cube. Intensity values were plotted in Graphpad Prism (9.2.0) with PROTAC concentration values represented on a log10 scale.

BCL-2 R110A = biological target: T6, BCL-2 R110A (Homo sapiens, UniProt P10415, R110A); assay: AlphaScreen binary binding, BCL-2 R110A; conditions: mean ± s.d., n=3
T6 construct: BCL-xL (aa 2-212) and BCL-2 (aa 1-207) transformed cells were grown in LB broth; made in house; host or cells: E. coli BL21 (DE3) codon plus
Experimental: as §1

BCL-2 E114A = biological target: T7, BCL-2 E114A (Homo sapiens, UniProt P10415, E114A); assay: AlphaScreen binary binding, BCL-2 E114A
T7 construct: BCL-xL (aa 2-212) and BCL-2 (aa 1-207) transformed cells were grown in LB broth; made in house; host or cells: E. coli BL21 (DE3) codon plus
Experimental: as §1

Jurkat cells = assay: Viability (MTS) assay in Jurkat cells; format: cell-based, human; conditions: 72 h
Experimental: For the viability assays in Jurkat cells, the cells in complete cell culture medium were seeded in 96-well plates (100 µl per well) at the optimized densities (50,000 cells). Compound treatments were prepared in complete cell culture medium and 100 µl of 2× treatment-containing medium were added to each well. Complete cell culture medium without treatment was added in control wells, and wells containing medium without cells served as background. The outer wells of the 96-well plate were not used for treatment and were filled with 250 µl of PBS to reduce evaporation of medium from inner wells. Each compound and/or combination was tested at nine different concentrations with three replicates. The cell viability was measured after 72 h by tetrazolium-based MTS assay. […] The cells were incubated for 4 h at 37 °C and 5% CO2, and then the absorbance was recorded at 490 nm using Biotek’s Synergy Neo2 multimode plate reader (Biotek). The average absorbance value of background wells was subtracted from absorbance value of each control and treatment well, and percent cell viability ((At/A0) × 100) was determined in each treatment well, where At is the absorbance value of the treatment well and A0 is the average absorbance value of control wells after background subtraction. […]

T7 sequence (P10415 1-207 E114A): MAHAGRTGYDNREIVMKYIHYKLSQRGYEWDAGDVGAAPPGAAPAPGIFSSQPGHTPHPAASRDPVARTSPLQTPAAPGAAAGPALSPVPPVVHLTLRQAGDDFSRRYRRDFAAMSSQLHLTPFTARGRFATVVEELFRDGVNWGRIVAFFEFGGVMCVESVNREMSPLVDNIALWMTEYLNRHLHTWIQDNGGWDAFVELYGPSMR
T2 sequence (Q07817 2-212 D107A): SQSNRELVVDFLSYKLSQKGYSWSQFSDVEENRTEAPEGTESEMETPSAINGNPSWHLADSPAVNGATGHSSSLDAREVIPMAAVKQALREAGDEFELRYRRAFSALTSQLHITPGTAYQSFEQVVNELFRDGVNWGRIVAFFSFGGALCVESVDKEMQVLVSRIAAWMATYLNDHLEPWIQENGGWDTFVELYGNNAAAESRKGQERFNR
T3 sequence (Q07817 2-212 R103A/D107A/S110A/Q111A): as the sequence (Q07817 2-212 D107A) above, with R102A, S109A, Q110A counted along it
T1 sequence (Q07817 2-212 R103A/D107A/S110A): as the sequence (Q07817 2-212 D107A) above, with R102A, S109A counted along it
T4 sequence (P10415 1-207 R110A/E114A): as the sequence (P10415 1-207 E114A) above, with R110A counted along it
T6 sequence (P10415 1-207 R110A): as the sequence (P10415 1-207 E114A) above, with R110A, A114E counted along it
T5 sequence (Q15369 17-112): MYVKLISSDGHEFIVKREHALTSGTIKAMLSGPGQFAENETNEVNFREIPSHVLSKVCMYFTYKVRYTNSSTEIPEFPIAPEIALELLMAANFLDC
T5 sequence (Q07817 2-212): as the sequence (Q07817 2-212 D107A) above, with A106D counted along it
T5 sequence (Q15370 whole entry, further chain, the tested form may be a part): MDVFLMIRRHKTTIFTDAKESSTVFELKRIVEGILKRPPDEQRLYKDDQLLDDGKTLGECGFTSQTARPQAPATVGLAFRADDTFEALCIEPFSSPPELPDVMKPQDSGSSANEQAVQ
T5 sequence (P40337 54-213): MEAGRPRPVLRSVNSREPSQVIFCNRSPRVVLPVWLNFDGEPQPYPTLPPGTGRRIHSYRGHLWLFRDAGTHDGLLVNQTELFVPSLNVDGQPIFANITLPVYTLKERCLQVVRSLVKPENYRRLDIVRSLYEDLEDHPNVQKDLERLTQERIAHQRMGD

Ki (BCL-xL R103A/D107A/S110A) [nM]	Ki (BCL-xL D107A) [nM]	Ki [1] [nM]	Structure (SMILES)	Ki (BCL-2 R110A E114A) [nM]	Ternary complex formation with BCL-xL (comparison with 753b) [2]	Ki (BCL-2 R110A) [nM]	Increase in Ki for the binary interaction, mutant E114A versus WT BCL-2 (BCL-2 E114A)	Ki (BCL-2 E114A; mean ± s.d., n=3) [nM]	Potency in killing Jurkat cells (comparison) (Jurkat cells)
18.4 ± 2.3	30.3 ± 4.5	23 ± 4	Cc1ncsc1-c1ccc(C(C)NC(=O)C2CC(O)CN2C(=O)C(NC(=O)CCCCCCC(=O)N2CCN(CC3(C)CCC(c4ccc(Cl)cc4)=C(CN4CCN(c5ccc(C(=O)NS(=O)(=O)c6ccc(NC(CCN7CCOCC7)CSc7ccccc7)c(S(=O)(=O)C(F)(F)F)c6)cc5)CC4)C3)CC2)C(C)(C)C)cc1 (stereo not drawn) [753b]						
			Cc1ncsc1-c1ccc([C@H](C)NC(=O)[C@@H]2C[C@@H](O)CN2C(=O)[C@@H](NC(=O)CN2CCN(CC(=O)N3CCN(C[C@]4(C)CCC(c5ccc(Cl)cc5)=C(CN5CCN(c6ccc(C(=O)NS(=O)(=O)c7ccc(N[C@H](CCN8C[C@@H]9C[C@H]8CO9)CSc8ccccc8)c(S(=O)(=O)C(F)(F)F)c7)cc6)CC5)C4)CC3)CC2)C(C)(C)C)cc1 [WH244]	5.8 ± 0.6	tighter complex	8 ± 1.2	more than two-fold	7.4 ± 1.5	outperformed 753b, DT2216, and ABT263
